# Reference: US11590129B2, “Combination therapy with an antitumor alkaloid” (PHARMA MAR, S.A., priority 2010, dated 2023)
# Experiments:
# HT-29 tumors = assay: Human colorectal tumor xenografts (HT-29) in athymic nude mice, tumor volume % T/C
# SW1990 tumors = assay: Human pancreatic tumor xenografts (SW1990) in athymic nude mice, tumor volume % T/C; assay type: in vivo
# Method: Female athymic nude mice (Harlan Laboratories Models, S.L. (Barcelona, Spain) were utilized for all experiments. Animals were housed in individually ventilated cages, up to ten per cage in a 12-hour light-dark cycle at 21-23° C. and 40-60% humidity. The mice were allowed free access to irradiated standard rodent diet and sterilized water. Animals were acclimated for at least 5 days prior to tumor implantation with a tumor cell suspension.
# Each animal was subcutaneously implanted on the right flank, using 26G needle and a 1 cc syringe, with 5×10^6 SW1990 cells, from in vitro passage 12, in 0.05 mL suspension of 50% Matrigel and 50% serum free medium, without antibiotics.
# PM01183 was provided in the form of vials of lyophilized PM01183 cake which was reconstituted with water for infusion to a concentration of 0.2 mg/mL. The PM01183 stock solution was further diluted in 5% glucose solution for injection to the dosing formulation concentrations.
# Dose level groups were administered either as single agents or in combination.
# Comparison of the median tumor volume in the treatment groups (T) to the median tumor volume in the control group (T/C×100%) was used for evaluation of the antitumor efficacy.
# H460 tumors = assay: Human lung tumor xenografts (H460) in athymic nude mice, tumor volume % T/C
# [1] = tested on: HGC-27 human gastric carcinoma cell line; assay: cells; settings: Homo sapiens, HGC-27, 72 h
# [2] = PM01183 0.045 mg/kg iv days 0,7,14
# [3] = PM01183 0.09 mg/kg iv days 0,7,14
# [4] = PM01183 0.135 mg/kg iv days 0,7,14
# [5] = PM01183 0.18 mg/kg iv days 0,7,14
structure (smiles),measurement,setting,value
COc1ccc2[nH]c3c(c2c1)CCN[C@]31CS[C@@H]2c3c(OC(C)=O)c(C)c4c(c3[C@H](COC1=O)N1[C@@H]2[C@H]2c3c(cc(C)c(OC)c3O)C[C@@H]([C@@H]1O)N2C)OCO4 [PM01183],% T/C on day 0,HT-29 tumors; PM01183 0.045 mg/kg,99.8%
same,% T/C on day 3,HT-29 tumors; PM01183 0.045 mg/kg,103.7%
same,% T/C on day 5,HT-29 tumors; PM01183 0.045 mg/kg,100.6%
same,% T/C on day 7,HT-29 tumors; PM01183 0.045 mg/kg,111.1%
same,% T/C on day 10,HT-29 tumors; PM01183 0.045 mg/kg,135.8%
same,% T/C on day 12,HT-29 tumors; PM01183 0.045 mg/kg,125.1%
same,% T/C on day 14,HT-29 tumors; PM01183 0.045 mg/kg,109.3%
same,% T/C on day 0,HT-29 tumors; PM01183 0.09 mg/kg,98.4%
same,% T/C on day 3,HT-29 tumors; PM01183 0.09 mg/kg,100.9%
same,% T/C on day 5,HT-29 tumors; PM01183 0.09 mg/kg,88.7%
same,% T/C on day 7,HT-29 tumors; PM01183 0.09 mg/kg,121.9%
same,% T/C on day 10,HT-29 tumors; PM01183 0.09 mg/kg,129.8%
same,% T/C on day 12,HT-29 tumors; PM01183 0.09 mg/kg,114.1%
same,% T/C on day 14,HT-29 tumors; PM01183 0.09 mg/kg,109.4%
same,% T/C on day 17,HT-29 tumors; PM01183 0.09 mg/kg,116.1%
same,% T/C on day 20,HT-29 tumors; PM01183 0.09 mg/kg,93.4%
same,% T/C on day 0,HT-29 tumors; PM01183 0.135 mg/kg,98.4%
same,% T/C on day 3,HT-29 tumors; PM01183 0.135 mg/kg,106.4%
same,% T/C on day 5,HT-29 tumors; PM01183 0.135 mg/kg,95.3%
same,% T/C on day 7,HT-29 tumors; PM01183 0.135 mg/kg,116.6%
same,% T/C on day 10,HT-29 tumors; PM01183 0.135 mg/kg,115.2%
same,% T/C on day 12,HT-29 tumors; PM01183 0.135 mg/kg,119.1%
same,% T/C on day 14,HT-29 tumors; PM01183 0.135 mg/kg,121.5%
same,% T/C on day 17,HT-29 tumors; PM01183 0.135 mg/kg,133.1%
same,% T/C on day 20,HT-29 tumors; PM01183 0.135 mg/kg,105.2%
same,% T/C on day 0,HT-29 tumors; PM01183 0.18 mg/kg,100.4%
same,% T/C on day 3,HT-29 tumors; PM01183 0.18 mg/kg,108.4%
same,% T/C on day 5,HT-29 tumors; PM01183 0.18 mg/kg,86.5%
same,% T/C on day 7,HT-29 tumors; PM01183 0.18 mg/kg,101.1%
same,% T/C on day 10,HT-29 tumors; PM01183 0.18 mg/kg,116.5%
same,% T/C on day 12,HT-29 tumors; PM01183 0.18 mg/kg,115.4%
same,% T/C on day 14,HT-29 tumors; PM01183 0.18 mg/kg,123.4%
same,% T/C on day 17,HT-29 tumors; PM01183 0.18 mg/kg,86.7%
same,% T/C on day 20,HT-29 tumors; PM01183 0.18 mg/kg,77.5%
same,% T/C on day 0,SW1990 tumors; [2],100.2%
same,% T/C on day 3,SW1990 tumors; [2],83.6%
same,% T/C on day 6,SW1990 tumors; [2],82.8%
same,% T/C on day 8,SW1990 tumors; [2],93.3%
same,% T/C on day 10,SW1990 tumors; [2],82.9%
same,% T/C on day 13,SW1990 tumors; [2],88.1%
same,% T/C on day 15,SW1990 tumors; [2],92.6%
same,% T/C on day 17,SW1990 tumors; [2],86.5%
same,% T/C on day 20,SW1990 tumors; [2],85.1%
same,% T/C on day 22,SW1990 tumors; [2],84.5%
same,% T/C on day 24,SW1990 tumors; [2],85.8%
same,% T/C on day 28,SW1990 tumors; [2],85.4%
same,% T/C on day 0,SW1990 tumors; [3],101.1%
same,% T/C on day 3,SW1990 tumors; [3],81.5%
same,% T/C on day 6,SW1990 tumors; [3],72.8%
same,% T/C on day 8,SW1990 tumors; [3],68.7%
same,% T/C on day 10,SW1990 tumors; [3],68.4%
same,% T/C on day 13,SW1990 tumors; [3],74.4%
same,% T/C on day 15,SW1990 tumors; [3],74.7%
same,% T/C on day 17,SW1990 tumors; [3],80.7%
same,% T/C on day 20,SW1990 tumors; [3],71.9%
same,% T/C on day 22,SW1990 tumors; [3],75.4%
same,% T/C on day 24,SW1990 tumors; [3],77.3%
same,% T/C on day 28,SW1990 tumors; [3],63.9%
same,% T/C on day 0,SW1990 tumors; [4],99.6%
same,% T/C on day 3,SW1990 tumors; [4],81.3%
same,% T/C on day 6,SW1990 tumors; [4],71.0%
same,% T/C on day 8,SW1990 tumors; [4],73.1%
same,% T/C on day 10,SW1990 tumors; [4],65.6%
same,% T/C on day 13,SW1990 tumors; [4],63.1%
same,% T/C on day 15,SW1990 tumors; [4],56.3%
same,% T/C on day 17,SW1990 tumors; [4],56.7%
same,% T/C on day 20,SW1990 tumors; [4],56.9%
same,% T/C on day 22,SW1990 tumors; [4],56.5%
same,% T/C on day 24,SW1990 tumors; [4],53.0%
same,% T/C on day 28,SW1990 tumors; [4],51.7%
same,% T/C on day 0,SW1990 tumors; [5],100.0%
same,% T/C on day 3,SW1990 tumors; [5],74.3%
same,% T/C on day 6,SW1990 tumors; [5],61.3%
same,% T/C on day 8,SW1990 tumors; [5],59.4%
same,% T/C on day 10,SW1990 tumors; [5],56.7%
same,% T/C on day 13,SW1990 tumors; [5],56.1%
same,% T/C on day 15,SW1990 tumors; [5],53.2%
same,% T/C on day 17,SW1990 tumors; [5],47.8%
same,% T/C on day 20,SW1990 tumors; [5],44.2%
same,% T/C on day 22,SW1990 tumors; [5],45.3%
same,% T/C on day 24,SW1990 tumors; [5],44.8%
same,% T/C on day 28,SW1990 tumors; [5],38.9%
same,% T/C on day 0,H460 tumors; PM01183 0.045 mg/kg,108.3%
same,% T/C on day 2,H460 tumors; PM01183 0.045 mg/kg,78.7%
same,% T/C on day 5,H460 tumors; PM01183 0.045 mg/kg,61.2%
same,% T/C on day 7,H460 tumors; PM01183 0.045 mg/kg,67.2%
same,% T/C on day 9,H460 tumors; PM01183 0.045 mg/kg,78.8%
same,% T/C on day 12,H460 tumors; PM01183 0.045 mg/kg,87.9%
same,% T/C on day 0,H460 tumors; PM01183 0.09 mg/kg,116.9%
same,% T/C on day 2,H460 tumors; PM01183 0.09 mg/kg,83.1%
same,% T/C on day 5,H460 tumors; PM01183 0.09 mg/kg,83.9%
same,% T/C on day 7,H460 tumors; PM01183 0.09 mg/kg,76.9%
same,% T/C on day 9,H460 tumors; PM01183 0.09 mg/kg,80.6%
same,% T/C on day 12,H460 tumors; PM01183 0.09 mg/kg,84.9%
same,% T/C on day 0,H460 tumors; PM01183 0.135 mg/kg,117.6%
same,% T/C on day 2,H460 tumors; PM01183 0.135 mg/kg,77.4%
same,% T/C on day 5,H460 tumors; PM01183 0.135 mg/kg,67.5%
same,% T/C on day 7,H460 tumors; PM01183 0.135 mg/kg,71.7%
same,% T/C on day 9,H460 tumors; PM01183 0.135 mg/kg,66.7%
same,% T/C on day 12,H460 tumors; PM01183 0.135 mg/kg,52.9%
same,% T/C on day 0,H460 tumors; PM01183 0.18 mg/kg,114.4%
same,% T/C on day 2,H460 tumors; PM01183 0.18 mg/kg,79.6%
same,% T/C on day 5,H460 tumors; PM01183 0.18 mg/kg,74.7%
same,% T/C on day 7,H460 tumors; PM01183 0.18 mg/kg,75.0%
same,% T/C on day 9,H460 tumors; PM01183 0.18 mg/kg,69.1%
same,% T/C on day 12,H460 tumors; PM01183 0.18 mg/kg,64.9%
same,IC50,[1],0.85 nM
